Patent US20180370927A1, “MICROBIOCIDAL OXADIAZOLE DERIVATIVES” (SYNGENTA PARTICIPATIONS AG, priority 2015, published 2018)

Legend:
Uromyces viciae-Fabae = assay: Uromyces viciae-fabae / field bean / leaf disc preventative (faba-bean rust); format: in vivo; details: foliar, 288 h, 100 ppm in the applied formulation, field bean leaf discs, assessed 12 days after application, read-out: disease control compared to untreated control leaf discs
Description: Leaf disks or leaf segments of various plant species are cut from plants grown in a greenhouse. The cut leaf disks or segments are placed in multiwell plates (24-well format) onto water agar. The leaf disks are sprayed with a test solution before (preventative) or after (curative) inoculation. Compounds to be tested are prepared as DMSO solutions (max. 10 mg/mL) which are diluted to the appropriate concentration with 0.025% Tween20 just before spraying. The inoculated leaf disks or segments are incubated under defined conditions (temperature, relative humidity, light, etc.) according to the respective test system. A single evaluation of disease level is carried out 3 to 14 days after inoculation, depending on the pathosystem. Percent disease control relative to the untreated check leaf disks or segments is then calculated.
Example 5: Fungicidal Activity Against Uromyces viciae-Fabael Field Bean/Leaf Disc Preventative (Faba-Bean Rust)
Field bean leaf discs are placed on water agar in multiwell plates (96-well format) and 10 μL of the formulated test compound diluted in acetone and a spreader pipetted onto the leaf disc. Two hours after application leaf discs are inoculated by spraying a spore suspension on the lower leaf surface. The leaf discs are incubated in a climate cabinet at 22° C. with 18 hour days and 70% relative humidity. The activity of a compound is assessed as percent disease control compared to untreated when an appropriate level of disease damage appears in untreated check leaf disks (12 days after application).
The following compounds at 100 ppm in the applied formulation give at least 80% disease control in this test when compared to untreated control leaf discs under the same conditions, which show extensive disease development.

[1] = tested on: Glomerella lacenarium (Colletotrichum lacenarium); assay: Glomerella lacenarium (Colletotrichum lacenarium) liquid culture / cucumber / preventative (anthracnose); format: cell-based; details: 20 ppm in the applied formulation, liquid culture in PDB, 24° C., 3 to 4 days after application, read-out: disease control (inhibition of growth, photometric) compared to untreated control
In short: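 At 20 ppm in the applied formulation, compounds were mixed with fungal spores in potato dextrose broth and held at 24° C. After 3–4 days, photometric growth measurement gave percent antifungal activity relative to untreated control.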

Phakopsora pachyrhizi = Phakopsora pachyrhizi / soybean / leaf disc preventative (Asian soybean rust); format: in vivo; details: foliar, 200 ppm in the applied formulation, soybean leaf disks, assessed 12 to 14 days after application, read-out: disease control compared to untreated control leaf disks
In short: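 Soybean leaf discs on water agar were sprayed with formulated compound diluted in water, then inoculated one day later with spore suspension on the lower leaf surface. Held 24-36 h dark at 20° C., 75% RH, then 12 h light/day; percent disease control versus untreated scored 12 to 14 days after application.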

[2] = tested on: Puccinia recondita f. Sp. Tritici; assay: Puccinia recondita f. sp. tritici / wheat / leaf disc preventative (brown rust); format: in vivo; details: foliar, 200 ppm in the applied formulation, wheat leaf segments, preventative, assessed 7 to 9 days after application, read-out: disease control compared to untreated control leaf disks
In short: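 Wheat cv. Kanzler leaf segments on agar sprayed with formulated compound in water, inoculated with rust spores 1 day later. Incubated at 19° C, 75% rh, 12 h light/12 h dark; percent disease control versus untreated scored 7 to 9 days after application; tested at 200 ppm.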

Compound | pest or weed control at 100 ppm (Uromyces viciae-Fabae) [%] | inhibition at 20 ppm [1] [%] | melting point [°C] | pest or weed control at 200 ppm (Phakopsora pachyrhizi) [%] | pest or weed control at 200 ppm [2] [%]
O=C(Nc1ccc(-c2noc(C(F)(F)F)n2)cc1)C(=O)c1cccc(F)c1 [Compound 1.2, 2-(3-fluorophenyl)-2-oxo-N-[4-[5-(trifluoromethyl)-1,2,4-oxadiazol-3-yl]phenyl]acetamide] | ≥ 80 | ≥ 80 |  |  | 
O=C(O)C(=O)Nc1ccc(-c2noc(C(F)(F)F)n2)cc1 [Compound 3.1, 2-oxo-2-[4-[5-(trifluoromethyl)-1,2,4-oxadiazol-3-yl]anilino]acetic acid] | ≥ 80 |  | 184 to 186 |  | 
O=C(Nc1ccc(-c2noc(C(F)(F)F)n2)cc1)C(=O)c1ccccc1 [Compound 1.1, 2-oxo-2-phenyl-N-[4-[5-(trifluoromethyl)-1,2,4-oxadiazol-3-yl]phenyl]acetamide] | ≥ 80 |  |  |  | 
O=C(Nc1ccc(-c2noc(C(F)(F)F)n2)cc1)C(=O)NC1CC1 [Compound 4.6, N′-cyclopropyl-N-[4-[5-(trifluoromethyl)-1,2,4-oxadiazol-3-yl]phenyl]oxamide] | ≥ 80 |  | 238 to 241 | ≥ 80 | 
CCOC(=O)C(=O)Nc1ccc(-c2noc(C(F)(F)F)n2)cc1 [Compound 2.3, ethyl 2-oxo-2-[4-[5-(trifluoromethyl)-1,2,4-oxadiazol-3-yl]anilino]acetate] | ≥ 80 |  | 164 to 166 |  | ≥ 80
CN(C)NC(=O)C(=O)Nc1ccc(-c2noc(C(F)(F)F)n2)cc1 [Compound 4.8, 2-(2,2-dimethylhydrazino)-2-oxo-N-[4-[5-(trifluoromethyl)-1,2,4-oxadiazol-3-yl]phenyl]acetamide] | ≥ 80 |  | 232 to 234 | ≥ 80 | 
CCCON(Cc1ccc(-c2noc(C(F)(F)F)n2)cc1)C(=O)C(N)=O [Compound 4.11, N′-propoxy-N′-[[4-[5-(trifluoromethyl)-1,2,4-oxadiazol-3-yl]phenyl]methyl] oxamide] | ≥ 80 | ≥ 80 |  |  | ≥ 80
O=C(NCC1CC1)C(=O)Nc1ccc(-c2noc(C(F)(F)F)n2)cc1 [Compound 4.3, N-(cyclopropylmethyl)-N′-[4-[5-(trifluoromethyl)-1,2,4-oxadiazol-3-yl]phenyl]oxamide] | ≥ 80 |  | 209 to 212 | ≥ 80 | 
C#CCNC(=O)C(=O)Nc1ccc(-c2noc(C(F)(F)F)n2)cc1 [Compound 4.5, N-prop-2-ynyl-N′-[4-[5-(trifluoromethyl)-1,2,4-oxadiazol-3-yl]phenyl]oxamide] | ≥ 80 |  | 212 to 214 | ≥ 80 | 
CO/N=C(/C(=O)Nc1ccc(-c2noc(C(F)(F)F)n2)cc1)c1ccccc1 [Compound 2.1, (2E)-2-methoxyimino-2-phenyl-N-[4-[5-(trifluoromethyl)-1,2,4-oxadiazol-3-yl]phenyl]acetamide] | ≥ 80 |  |  |  | 
CON(C)C(=O)C(=O)Nc1ccc(-c2noc(C(F)(F)F)n2)cc1 [Compound 4.9, N′-methoxy-N′-methyl-N-[4-[5-(trifluoromethyl)-1,2,4-oxadiazol-3-yl]phenyl]oxamide] | ≥ 80 | ≥ 80 | 163 to 165 | ≥ 80 | ≥ 80
CON=C(C(=O)NCc1ccc(-c2noc(C(F)(F)F)n2)cc1)c1ccccc1 [Compound 2.2, 2-methoxyimino-2-phenyl-N-[[4-[5-(trifluoromethyl)-1,2,4-oxadiazol-3-yl]phenyl]methyl]acetamide] | ≥ 80 | ≥ 80 |  |  | ≥ 80
